From patent US20260200926A1, “TREM2 MODULATORS” (Muna Therapeutics ApS, priority 2022, published 2026) come the findings set out here.

This experiment has as its target T1, Human TREM2 (Homo sapiens, UniProt Q9NZC2).
T1 construct: expressed in transfected cells
As to the kind of experiment: Human TREM2 activity: cellular phosphorylation of Syk (AlphaLISA SureFire Ultra p-SYK) in HEK293/DAP12+TREM2 stable cell line. The experiment is classed as cell-based. As to conditions: for Emax: HEK293, read-out: Emax; for EC50: phospho-Syk AlphaLISA signal, HEK293/DAP12+TREM2 cells, concentration giving 50% of maximal response, read-out: EC50. A digest of the protocol:
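The read-out was p-Syk (Tyr525/526), measured by AlphaLISA in lysates of a stable HEK293/DAP12+TREM2 clone. Cells (10,000/well, plated the day before) received compound for 30 min at 37 °C. Dosing used 8 points in quadruplicate, top 100 μM with 1:6 dilution, 0.5% final DMSO.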
(In general: In Alpha technology, singlet oxygen from a donor bead excites a nearby acceptor bead.)

[1] abbreviates: maximal response relative to reference agonist example 1B (remaining examples).

Like-named read-outs stand apart in the source and are kept apart here.

T1 sequence (Q9NZC2 19-230): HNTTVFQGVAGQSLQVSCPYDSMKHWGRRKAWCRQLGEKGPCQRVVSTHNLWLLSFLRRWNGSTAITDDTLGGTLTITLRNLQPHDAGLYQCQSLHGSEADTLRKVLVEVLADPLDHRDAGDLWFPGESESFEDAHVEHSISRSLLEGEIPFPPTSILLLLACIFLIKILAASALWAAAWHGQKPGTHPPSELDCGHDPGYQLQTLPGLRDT
T1 sequence (O43914 22-113 partner): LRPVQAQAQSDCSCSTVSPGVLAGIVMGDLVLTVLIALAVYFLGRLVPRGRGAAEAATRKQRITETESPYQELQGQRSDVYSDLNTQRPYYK

In the case of `Cn1c(C(F)(F)F)nc2c(-c3cc(F)c(F)cc3F)nc([C@@H]3CCO[C@H](c4cnn(C5CC5)c4)C3)nc2c1=O` (single isomer, unassigned) [Example 186A], the EC50 lay in the range of 1 to 10 nM. Besides, the Emax under setting [1] lay within 75 to 110%.

As for `Cc1nc2c(-c3ccc(Cl)cc3F)nc(N3C[C@@H](c4cnn(C)c4)OC4(CCC4)C3)nc2c(=O)n1C` (single isomer, unassigned) [Example 109A], the concentration for a half-maximal effect (EC50) was 1 to 10 nM. The Emax under setting [1] lay within 75 to 110%.

Consider `Cc1nc2c(-c3ccc(C(F)(F)F)nc3)nc([C@@H]3CCO[C@H](c4cnn(C5CC5)c4)C3)nc2c(=O)n1C` (single isomer, unassigned) [Example 98A], for which the EC50 lay in the range of 10 to 100 nM. Also, under setting [1], the Emax was under 75%.

As for `Cc1nc2c(-c3ccc(Cl)cc3F)nc(N3C[C@H](c4cnn(C)c4)OC4(CC4)C3)cc2c(=O)n1C` (single isomer, unassigned) [Example 144B], the EC50 lay within 10 to 100 nM. Also, under setting [1], the Emax is under 75%.

In the case of `Cc1cc([C@@H]2CN(c3nc(-c4ccc(C(F)(F)F)cc4F)c4nc(C)n(C)c(=O)c4n3)C[C@H](C)O2)ccn1` (single isomer, unassigned) [Example 179A], the EC50 lay in the range of 1 to 10 nM. Further, the Emax under setting [1] fell in the range of 75 to 110%.

With `Cc1nc2c(-c3ccc(F)cc3Cl)nc(N3CCOC(c4cnn(C)c4)C3)nc2c(=O)n1C` (stereo not drawn) [Example 70, 8-(2-chloro-4-fluorophenyl)-2,3-dimethyl-6-(2-(1-methyl-1H-pyrazol-4-yl)morpholino)pyrimido[5,4-d]pyrimidin-4 (3H)-one], the EC50 was over 1000 nM. In addition, under setting [1], the Emax was under 75%.

In the case of `Cc1nc2c(-c3ccc(C#N)cc3F)nc(N3C[C@@H](c4cnn(C5CC5)c4)O[C@@H](C)C3)cc2c(=O)n1C` (single isomer, unassigned) [Example 200A], the EC50 was under 1 nM. The maximal effect (Emax) under setting [1] was in the range of 75 to 110%.

Consider `Cc1cc([C@@H]2CN(c3cc4c(=O)n(C)c(C)nc4c(-c4ccc(C(F)F)nc4)n3)C[C@H](C)O2)ccn1` (single isomer, unassigned) [Example 192A], for which the EC50 was in the range of 100 to 1000 nM. For the same compound, the Emax under setting [1] was under 75%.

Turning to `Cc1cc(C2CN(c3nc(-c4ccc(Cl)cc4F)c4nc(C)n(C)c(=O)c4n3)CCO2)ccn1` (stereo not drawn) [Example 3, 8-(4-chloro-2-fluorophenyl)-2,3-dimethyl-6-(2-(2-methylpyridin-4-yl)morpholino)pyrimido[5,4-d]pyrimidin-4 (3H)-one], the EC50 fell in the range of 1 to 10 nM. Under setting [1], the Emax lay within 75 to 110%.

Take `Cc1nc2c(-c3ccc(C(F)(F)F)cc3F)nc(N3CCO[C@@H](c4cnn(C5CC5)c4)C3)cc2c(=O)n1C` (single isomer, unassigned) [Example 132B]: the EC50 lay within 100 to 1000 nM. Besides, the Emax under setting [1] is under 75%.

Regarding `Cc1nc2c(-c3cc(F)c(F)cc3F)nc(N3C[C@@H](c4cnn(C)c4)OC4(CC4)C3)cc2c(=O)n1C` (single isomer, unassigned) [Example 146A], the EC50 lay within 10 to 100 nM. Besides, the Emax under setting [1] fell in the range of 75 to 110%.

With `Cc1nc2c(-c3ccc(C(F)(F)F)cc3F)nc([C@@H]3CCO[C@H](c4cnn(C5CC5)c4)C3)cc2c(=O)n1C` (single isomer, unassigned) [Example 153A], the EC50 is 1 to 10 nM. Under setting [1], the maximum response (Emax) is over 110%.

As for `Cc1nc2c(-c3ccc(F)cc3C#N)nc(N3C[C@@H](c4cnn(C5CC5)c4)O[C@@H](C)C3)cc2c(=O)n1C` (single isomer, unassigned) [Example 201A], the EC50 is over 1000 nM. The Emax under setting [1] is under 75%.

Consider `Cc1nc2c(-c3ccc(Cl)cc3F)nc(N3CCOC(c4cnn(C)c4)C3)nc2c(=O)[nH]1` (stereo not drawn) [Example 60, 8-(4-chloro-2-fluorophenyl)-2-methyl-6-(2-(1-methyl-1H-pyrazol-4-yl)morpholino)pyrimido[5,4-d]pyrimidin-4 (3H)-one], for which the 50% effective concentration (EC50) fell in the range of 100 to 1000 nM. Further, the Emax under setting [1] was under 75%.

With `Cc1nc2c(C34CC(C(F)(F)F)(C3)C4)nc(N3CCO[C@@H](c4cnn(C)c4)C3)nc2c(=O)n1C` [Example 113, (S)-2,3-dimethyl-6-(2-(1-methyl-1H-pyrazol-4-yl)morpholino)-8-(3-(trifluoromethyl)bicyclo[1.1.1]pentan-1-yl)pyrimido[5,4-d]pyrimidin-4 (3H)-one], the EC50 was 1 to 10 nM. Further, the Emax under setting [1] lay within 75 to 110%.

With `Cc1nc2c(-c3ccc(Cl)cc3F)nc(N3CCO[C@@H](c4cnn(C)c4)C3)nc2c(=O)n1C` (single isomer, unassigned) [Example 1B], the EC50 was in the range of 10 to 100 nM. Also, the Emax (maximal response relative to reference agonist human TREM2 MAB1828 (examples 1, 1A and 1B)) was over 110%.

As for `Cc1cc([C@@H]2CN(c3nc(-c4ccc(F)cc4F)c4nc(C(F)(F)F)n(C)c(=O)c4c3F)CCO2)ccn1` (single isomer, unassigned) [Example 174A], the concentration for a half-maximal effect (EC50) was in the range of 10 to 100 nM. Further, the Emax under setting [1] was under 75%.

As to `Cc1cc([C@@H]2CN(c3nc(-c4ccc(C(F)(F)F)nc4)c4nc(C)n(C)c(=O)c4n3)CCO2)ccn1` (single isomer, unassigned) [Example 22A], the EC50 lay in the range of 100 to 1000 nM. In addition, the Emax under setting [1] was in the range of 75 to 110%.

Take `Cc1cc([C@@H]2CN(c3nc(-c4cc(F)c(F)cc4F)c4nc(C(F)(F)F)n(C)c(=O)c4n3)CCO2)ccn1` (single isomer, unassigned) [Example 155A]: the EC50 was under 1 nM. In addition, under setting [1], the Emax was 75 to 110%.

As for `Cc1nc2c(-c3cc(F)c(F)cc3F)nc([C@@H]3CCO[C@H](c4cnn(C)c4)C3)nc2c(=O)n1C` (single isomer, unassigned) [Example 38A], the EC50 is 100 to 1000 nM. The Emax under setting [1] was under 75%.

Take `Cc1nc2c(-c3ccc(Cl)cc3F)cc(N3CCOC(c4cnn(C)c4)C3)nc2c(=O)n1C` (stereo not drawn) [Example 104, 8-(4-chloro-2-fluorophenyl)-2,3-dimethyl-6-(2-(1-methyl-1H-pyrazol-4-yl)morpholino)pyrido[3,2-d]pyrimidin-4 (3H)-one]: the EC50 fell in the range of 100 to 1000 nM. For the same compound, the Emax under setting [1] was in the range of 75 to 110%.

In the case of `Cn1cc(C2CN(c3nc(-c4ccc(F)cc4F)c4nc(C(F)(F)F)n(C)c(=O)c4c3F)CC3(CC3)O2)cn1` (stereo not drawn) [Example 158, 8-(2,4-difluorophenyl)-5-fluoro-3-methyl-6-(5-(1-methyl-1H-pyrazol-4-yl)-4-oxa-7-azaspiro[2.5]octan-7-yl)-2-(trifluoromethyl)pyrido[3,4-d]pyrimidin-4 (3H)-one], the EC50 was 100 to 1000 nM. Moreover, the Emax under setting [1] was under 75%.

Turning to `Cc1cc([C@H]2CN(c3cc4c(=O)n(C)c(C)nc4c(-c4ccc(F)cc4F)n3)CC(C)(C)O2)ccn1` (single isomer, unassigned) [Example 159B], the EC50 fell in the range of 100 to 1000 nM. In addition, the Emax under setting [1] is under 75%.

Take `Cc1nc2c(-c3ccc(C(F)(F)F)cc3F)nc(N3C[C@@H](c4cnn(C)c4)OC(C)(C)C3)cc2c(=O)n1C` (single isomer, unassigned) [Example 134A]: the EC50 is 10 to 100 nM. Under setting [1], the Emax lay in the range of 75 to 110%.

Turning to `Cc1nc2c(-c3ccc(Cl)cc3F)nc(N3CC(OCc4cnn(C)c4)C3)nc2c(=O)n1C` [Example 18, 8-(4-chloro-2-fluorophenyl)-2,3-dimethyl-6-(3-((1-methyl-1H-pyrazol-4-yl)methoxy)azetidin-1-yl)pyrimido[5,4-d]pyrimidin-4 (3H)-one], the EC50 was over 1000 nM. Moreover, the Emax under setting [1] is under 75%.

Regarding `CCN1CCN(c2nc(-c3ccc(Cl)cc3F)c3nc(C)n(C)c(=O)c3n2)CC1c1cnn(C)c1` (stereo not drawn) [Example 30, 8-(4-chloro-2-fluorophenyl)-6-(4-ethyl-3-(1-methyl-1H-pyrazol-4-yl)piperazin-1-yl)-2,3-dimethylpyrimido[5,4-d]pyrimidin-4(3H)-one], the EC50 lay within 100 to 1000 nM. In addition, under setting [1], the Emax was 75 to 110%.

As for `Cc1nc2c(-c3cc(F)c(F)cc3F)nc(N3C[C@@H](c4cnn(C)c4)OC(C)(C)C3)nc2c(=O)n1C` (single isomer, unassigned) [Example 101A], the EC50 is 10 to 100 nM. Besides, under setting [1], the Emax lay in the range of 75 to 110%.

For the compound `Cc1csc(C2CN(c3nc(-c4ccc(Cl)cc4F)c4nc(C)n(C)c(=O)c4n3)CCO2)n1` (stereo not drawn) [Example 45, 8-(4-chloro-2-fluorophenyl)-2,3-dimethyl-6-(2-(4-methylthiazol-2-yl)morpholino)pyrimido[5,4-d]pyrimidin-4(3H)-one], the EC50 was 10 to 100 nM. The Emax under setting [1] was under 75%.

For the compound `Cc1cc([C@H]2CN(c3nc(-c4ccc(Cl)cc4F)c4nc(C)n(C)c(=O)c4n3)C[C@@H](C)O2)ccn1` (single isomer, unassigned) [Example 176B], the EC50 is 1 to 10 nM. In addition, under setting [1], the Emax was 75 to 110%.

In the case of `Cc1nc2c(-c3ccc(F)cc3C#N)nc(N3C[C@@H](C)O[C@@H](c4cnn(C5CC5)c4)C3)cc2c(=O)n1C` (single isomer, unassigned) [Example 201B], the EC50 is over 1000 nM. Also, the Emax under setting [1] is under 75%.

Take `Cc1nc2c(-c3cc(F)c(F)cc3F)nc(N3C[C@H](c4cnn(C)c4)OC(C)(C)C3)nc2c(=O)n1C` (single isomer, unassigned) [Example 101B]: the EC50 was over 1000 nM. In addition, under setting [1], the Emax is under 75%.

As for `Cc1nc2c(-c3ccc(Cl)cc3F)nc(N3CCOC(c4cn(C)cn4)C3)nc2c(=O)n1C` (stereo not drawn) [Example 82, 8-(4-chloro-2-fluorophenyl)-2,3-dimethyl-6-(2-(1-methyl-1H-imidazol-4-yl)morpholino)pyrimido[5,4-d]pyrimidin-4(3H)-one], the EC50 is over 1000 nM. Besides, the Emax under setting [1] was 75 to 110%.

As for `Cc1nc2c(-c3ccc(Cl)cc3F)nc(N3CCCC(N4CCOCC4)C3)nc2c(=O)n1C` (stereo not drawn) [Example 78, 8-(4-chloro-2-fluorophenyl)-2,3-dimethyl-6-(3-morpholinopiperidin-1-yl)pyrimido[5,4-d]pyrimidin-4 (3H)-one], the concentration giving a half-maximal response (EC50) is 100 to 1000 nM. In addition, the Emax under setting [1] is 75 to 110%.

What is called Emax is the greatest response seen or fitted, relative to the assay's reference. Usually EC50 stands for the midpoint of the concentration-response curve.
